Laboratory results: ChEMBL document CHEMBL1138576, “Virtual screening for Raf-1 kinase inhibitors based on pharmacophore model of substituted ureas” (Eur J Med Chem, 2009)

These molecules were tested against RAF proto-oncogene serine/threonine-protein kinase (Homo sapiens, UniProt P04049) (assay: Inhibition of Raf-1).
Chain of RAF proto-oncogene serine/threonine-protein kinase (P04049 whole entry): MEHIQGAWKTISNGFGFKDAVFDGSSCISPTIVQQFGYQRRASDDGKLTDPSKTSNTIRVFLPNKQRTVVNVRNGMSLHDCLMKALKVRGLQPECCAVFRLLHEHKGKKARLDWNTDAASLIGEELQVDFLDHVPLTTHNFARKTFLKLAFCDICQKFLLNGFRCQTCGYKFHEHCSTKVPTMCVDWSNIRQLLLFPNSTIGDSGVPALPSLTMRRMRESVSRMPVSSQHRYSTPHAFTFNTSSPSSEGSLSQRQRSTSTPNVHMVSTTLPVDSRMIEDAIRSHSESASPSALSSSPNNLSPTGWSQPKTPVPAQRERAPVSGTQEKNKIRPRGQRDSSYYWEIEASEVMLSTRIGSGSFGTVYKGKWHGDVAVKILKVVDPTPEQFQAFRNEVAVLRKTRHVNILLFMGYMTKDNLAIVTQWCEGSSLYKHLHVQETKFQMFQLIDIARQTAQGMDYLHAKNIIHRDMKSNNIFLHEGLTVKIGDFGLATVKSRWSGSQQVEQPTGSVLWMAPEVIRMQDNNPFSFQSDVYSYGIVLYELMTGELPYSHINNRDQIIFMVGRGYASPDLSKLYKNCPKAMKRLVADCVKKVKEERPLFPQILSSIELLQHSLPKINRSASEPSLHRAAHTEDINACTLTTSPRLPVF
Work on COC(=O)c1c(NC(=O)Nc2ccc(C)cc2)cc(C(C)(C)C)n1C yielded an IC50 of 5 µM.
Molecule CC(C)(C)c1cc(NC(=O)Nc2ccc(Oc3ccc(C(=O)O)cc3)cc2)no1 has an IC50 of 4.4 µM.
Work on COC(=O)c1sc(C(C)(C)C)cc1NC(=O)Nc1ccc(O)cc1 yielded an IC50 of 18 µM.
For O=C(Nc1ccc(Oc2ccnc(C(=O)Nc3ccc(N4CCOCC4)cc3)c2)cc1)Nc1ccc(Cl)c(C(F)(F)F)c1, the IC50 was 0.16 µM.
Molecule CC(=O)Nc1cccc(Oc2ccc(NC(=O)Nc3cc(C(C)(C)C)on3)cc2C(F)(F)F)c1 has an IC50 of 10 µM.
Cc1c(NC(=O)Nc2cc(C(C)(C)C)on2)ccc(Oc2ccccc2)c1C gave an IC50 of 0.65 µM.
CNS(=O)(=O)c1cccc(Oc2ccc(NC(=O)Nc3cc(C(C)(C)C)on3)cc2)c1 showed an IC50 of 7.5 µM.
CN(C)c1ccc(NC(=O)c2cc(Oc3ccc(NC(=O)Nc4ccc(Cl)c(C(F)(F)F)c4)cc3)ccn2)cc1 showed an IC50 of 0.23 µM.
CC(C)(C)c1cc(NC(=O)Nc2ccc(Cc3ccncc3)cc2)no1 gave an IC50 of 0.59 µM.
CC(C)(C)c1cc(NC(=O)Nc2ccc(C(O)c3ccncc3)cc2)no1 (stereo not given) gave an IC50 of 1.5 µM.
CNC(=O)c1ccc(Oc2ccc(NC(=O)Nc3cc(C(C)(C)C)on3)cc2)cc1 gave an IC50 of 1.1 µM.
Cn1nc(C(C)(C)C)cc1NC(=O)Nc1ccc(Oc2ccncc2)cc1 showed an IC50 of 0.8 µM.
For CC(C)(C)c1cccc(NC(=O)Nc2ccc(Oc3ccncc3)cc2)c1, the IC50 was 0.87 µM.
COc1c(Cl)cccc1NC(=O)Nc1ccc(Oc2ccncc2)cc1 showed an IC50 of 2.7 µM.
For COc1cc([N+](=O)[O-])ccc1NC(=O)Nc1ccc(Oc2ccncc2)cc1, the IC50 was 4.4 µM.
COc1cccc(Oc2ccc(NC(=O)Nc3cc(C(C)(C)C)on3)cc2)c1 gave an IC50 of 0.7 µM.
With CC(=O)c1cccc(Oc2ccc(NC(=O)Nc3cc(C(C)(C)C)on3)cc2)c1 the IC50 was 0.82 µM.
In the case of COc1cccc(NC(=O)Nc2ccc(Oc3ccncc3)cc2)c1, the IC50 is reported as 0.44 µM.
Molecule CCNC(=O)c1cc(Oc2ccc(NC(=O)Nc3cc(C(F)(F)F)c(Cl)cc3OC)cc2)ccn1 has an IC50 of 0.088 µM.
Cc1cc(Oc2ccccc2)ccc1NC(=O)Nc1cc(C(C)(C)C)on1 was tested, and the IC50 was 1.4 µM.
In the case of CC(C)(C)c1cc(NC(=O)Nc2ccc(Oc3ccncc3)cc2)on1, the IC50 is reported as 0.12 µM.
With CC(C)(C)c1cc(NC(=O)Nc2ccc(Oc3ccccc3)c(C(F)(F)F)c2)no1 the IC50 was 9.5 µM.
Molecule COc1ccc(Oc2ccc(NC(=O)Nc3cc(C(C)(C)C)on3)cc2)cc1 has an IC50 of 0.5 µM.
In the case of Cc1cccc(Oc2ccc(NC(=O)Nc3cc(C(C)(C)C)on3)cc2)c1, the IC50 is reported as 1 µM.
For O=C(Nc1ccc(Oc2ccnc(C(=O)Nc3cccnc3)c2)cc1)Nc1ccc(Cl)c(C(F)(F)F)c1, the IC50 was 0.044 µM.
